Data as given in PubChem BioAssay (NCI).
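Protocol summary: plate cells (96-well), add compound at 5 concentrations, incubate 48 h, interpolate endpoints linearly. TGI denotes the concentration required for complete inhibition of growth.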 Where a SMILES comes first, the peptide text is derived from it. [ ]: non-standard residue; d: D form. The star is where a group is joined. ξ: configuration not given here. ξF = NC(Cc1ccccc1)C(=O)O; Cbz = O=C(OCc1ccccc1)*

How the values were obtained:
Assay in all cases: inhibition of tumour cell growth, NCI panel, 48 h
[1] = test system: T-47D breast
[2] = test system: HCT-15 colon
[3] = test system: OVCAR-8 ovarian
[4] = test system: SW-620 colon
[5] = test system: SN12C renal
[6] = test system: SK-MEL-5 melanoma
[7] = test system: NCI-H226 lung
[8] = test system: HCT-116 colon
[9] = test system: NCI-H522 lung
[10] = test system: HL-60(TB) leukemia
[11] = test system: OVCAR-4 ovarian
[12] = test system: MALME-3M melanoma

For `CC(=O)c1ccc(Nc2c3c(nc4ccccc24)CCCC3)cc1`, the TGI [1] was > 52.2 µM, the TGI [2] was > 100 µM and the TGI [3] was 70.9 µM. The TGI [4] was > 78.8 µM, the TGI [5] was > 100 µM and the TGI [6] was > 59.2 µM. The TGI [7] was > 100 µM, the TGI [8] was > 72 µM and the TGI [9] was 16.6 µM. The TGI [10] was > 100 µM and the TGI [11] was > 100 µM.

`S=C1Cc2c(-c3ccccc3)cc(-c3cccc(Cl)c3)nc2-c2ccccc2N1` was tested, and the TGI [1] was 21.6 µM, the TGI [2] was 33.4 µM and the TGI [3] was 4.39 µM. The TGI [4] was 15.4 µM, the TGI [5] was 16.7 µM and the TGI [6] was > 81.7 µM. For the same molecule, the TGI [7] was 19.4 µM, the TGI [8] was 6.53 µM and the TGI [9] was 13.1 µM. The TGI [10] was 54.9 µM, the TGI [12] was > 24.5 µM and the TGI [11] was 1.21 µM.

With `COc1ccccc1C1c2cc3c(cc2OC2(OC)COC(=O)C12)OCO3` (stereo not given) the TGI [1] was > 100 µM, the TGI [2] was > 100 µM and the TGI [3] was > 74.6 µM. The TGI [4] was > 100 µM, the TGI [5] was > 100 µM and the TGI [6] was 59.3 µM. The TGI [7] was > 87.5 µM, the TGI [8] was > 80.9 µM and the TGI [9] was > 27.3 µM. For the same molecule, the TGI [10] was 18.5 µM, the TGI [12] was > 100 µM and the TGI [11] was > 95.9 µM.

With `COC(CN(C)C(=S)Nc1cccc2ccccc12)OC` the TGI [1] was > 10 µM, the TGI [2] was > 10 µM and the TGI [3] was > 10 µM. The TGI [4] was > 10 µM, the TGI [5] was > 10 µM and the TGI [6] was > 10 µM. For the same molecule, the TGI [7] was > 10 µM, the TGI [8] was > 10 µM and the TGI [9] was > 10 µM. The TGI [10] was > 10 µM, the TGI [12] was > 10 µM and the TGI [11] was > 10 µM.

`COc1cc(C2c3cc4c(cc3OC(NN)C2C)OCO4)cc(OC)c1O` (stereo not given) was tested, and the TGI [1] was 31 µM, the TGI [2] was 34.2 µM and the TGI [3] was 67.8 µM. The TGI [4] was > 100 µM, the TGI [5] was 62.2 µM and the TGI [6] was 12.7 µM. The TGI [7] was 62 µM, the TGI [8] was 20.1 µM and the TGI [9] was 42.2 µM. The TGI [10] was 5.32 µM, the TGI [12] was 40.1 µM and the TGI [11] was > 100 µM.

For `CC(C)C(Cl)CCC(C)(Cl)C(=O)CBr` (stereo not given), the TGI [1] was 6.27 µM, the TGI [2] was 10.6 µM and the TGI [3] was > 100 µM. It also gave a TGI [4] of 5.65 µM, a TGI [5] of 29.4 µM and a TGI [6] of 14.3 µM. For the same molecule, the TGI [7] was 44.5 µM, the TGI [8] was 9.06 µM and the TGI [9] was 3.34 µM. The TGI [10] was > 100 µM, the TGI [12] was 23 µM and the TGI [11] was 12.7 µM.

`O=c1c(-c2ccccc2)nnc2n(Cc3ccccc3)c3ccccc3n12` was tested, and the TGI [1] was > 100 µM, the TGI [2] was > 100 µM and the TGI [3] was > 100 µM. The TGI [4] was > 100 µM, the TGI [5] was > 100 µM and the TGI [6] was > 100 µM. For the same molecule, the TGI [7] was > 100 µM, the TGI [8] was > 100 µM and the TGI [9] was > 100 µM. The TGI [10] was > 100 µM, the TGI [12] was > 100 µM and the TGI [11] was > 100 µM.

For `N#Cc1ccccc1OCCOc1ccccc1C#N`, the TGI [1] was > 100 µM, the TGI [2] was > 100 µM and the TGI [3] was > 100 µM. For the same molecule, the TGI [4] was > 100 µM, the TGI [5] was > 100 µM and the TGI [6] was > 100 µM. The TGI [7] was > 100 µM, the TGI [8] was > 100 µM and the TGI [9] was > 100 µM. The TGI [10] was > 100 µM, the TGI [12] was > 100 µM and the TGI [11] was > 100 µM.

For `O=c1cc(Nc2cccc(O)c2)[nH]c(=O)[nH]1`, the TGI [1] was > 100 µM, the TGI [2] was > 100 µM and the TGI [3] was > 100 µM. For the same molecule, the TGI [4] was > 100 µM, the TGI [5] was > 100 µM and the TGI [6] was > 100 µM. For the same molecule, the TGI [7] was > 100 µM, the TGI [8] was > 100 µM and the TGI [9] was > 100 µM. The TGI [10] was > 100 µM, the TGI [12] was > 100 µM and the TGI [11] was > 100 µM.

In the case of `Cc1nc2c(sc3nc4c(cc32)CCC4)c(=O)o1`, the TGI [1] is reported as > 100 µM, the TGI [2] is reported as 99.6 µM and the TGI [3] is reported as > 93.7 µM. The TGI [4] was > 100 µM, the TGI [5] was > 100 µM and the TGI [6] was > 100 µM. For the same molecule, the TGI [7] was > 100 µM, the TGI [8] was > 100 µM and the TGI [9] was 77.9 µM. The TGI [10] was > 100 µM and the TGI [11] was 89 µM.

`C[C@@H]1CC[C@]2(C)C3(C)CC[C@]2(OC3=O)[C@@]12CC(c1ccoc1)OC2=O` (stereo not given in full) was tested, and the TGI [1] was > 100 µM, the TGI [2] was > 100 µM and the TGI [4] was 74.2 µM. For the same molecule, the TGI [5] was 95.5 µM, the TGI [6] was > 100 µM and the TGI [7] was > 100 µM. For the same molecule, the TGI [8] was 32.1 µM, the TGI [9] was 4.46 µM and the TGI [10] was 44.3 µM. It also gave a TGI [12] of 41.2 µM and a TGI [11] of 48.3 µM.

In the case of `C=CCON(C(=O)OC(C)(C)C)C(C)(C)C`, the TGI [1] is reported as > 100 µM, the TGI [2] is reported as > 100 µM and the TGI [3] is reported as > 100 µM. For the same molecule, the TGI [4] was > 100 µM, the TGI [6] was > 100 µM and the TGI [7] was > 100 µM. The TGI [8] was > 100 µM, the TGI [9] was > 100 µM and the TGI [10] was > 100 µM. For the same molecule, the TGI [12] was > 100 µM and the TGI [11] was > 100 µM.

`CCOC(=O)CNC(=O)C(Cc1ccccc1)NC(=O)OCc1ccccc1` (stereo not given) (Cbz-[ξF]-Gly-OEt) was tested, and the TGI [1] was > 100 µM, the TGI [2] was > 100 µM and the TGI [3] was > 100 µM. The TGI [4] was > 100 µM, the TGI [5] was > 100 µM and the TGI [6] was > 100 µM. The TGI [7] was > 100 µM, the TGI [8] was > 100 µM and the TGI [10] was > 100 µM. The TGI [12] was > 100 µM.

For `O=C(O)CCCc1ccc2c(c1)CC1(C2)Cc2cc3c(cc2C1)CCCC3`, the TGI [1] was > 100 µM, the TGI [2] was 23.7 µM and the TGI [3] was 31.4 µM. It also gave a TGI [5] of 44.1 µM, a TGI [6] of 32.7 µM and a TGI [7] of 61.8 µM. For the same molecule, the TGI [8] was 8.11 µM, the TGI [9] was 47 µM and the TGI [10] was 28.2 µM. For the same molecule, the TGI [12] was 41.5 µM and the TGI [11] was 45.6 µM.

`Cn1c2ccccc2c(=O)c2c(O)cc3c(c21)C1OCC(C)(O)C1O3` (stereo not given) was tested, and the TGI [1] was > 100 µM, the TGI [2] was > 100 µM and the TGI [3] was > 100 µM. For the same molecule, the TGI [4] was > 100 µM, the TGI [5] was > 100 µM and the TGI [6] was > 100 µM. For the same molecule, the TGI [7] was 63.5 µM, the TGI [8] was > 100 µM and the TGI [10] was > 100 µM. For the same molecule, the TGI [11] was > 100 µM.

`Cc1c(C)c2c(c(N)c1C#N)C(=O)N(Cc1ccc(S(N)(=O)=O)cc1)C2=O` was tested, and the TGI [1] was > 59.2 µM, the TGI [2] was > 100 µM and the TGI [3] was > 35.7 µM. The TGI [4] was > 100 µM, the TGI [5] was > 100 µM and the TGI [6] was > 100 µM. For the same molecule, the TGI [7] was > 62.9 µM, the TGI [8] was > 92.5 µM and the TGI [10] was > 100 µM. The TGI [12] was > 100 µM and the TGI [11] was > 100 µM.

`Cc1c(C)c(S(=O)(=O)N(CCCCN)OCCCN)c(C)c2c1OC(C)(C)CC2` was tested, and the TGI [1] was > 100 µM, the TGI [2] was 46.9 µM and the TGI [3] was 42 µM. The TGI [4] was > 100 µM, the TGI [5] was > 100 µM and the TGI [6] was > 100 µM. The TGI [7] was 30.1 µM, the TGI [8] was 35.8 µM and the TGI [9] was 34.1 µM. The TGI [10] was > 100 µM and the TGI [11] was 30 µM.

`Cc1cc2nc3c(C#N)c(-c4ccccc4)/c(=C\Nc4ccc(F)cc4)c(=O)n3c2cc1C` was tested, and the TGI [1] was > 100 µM, the TGI [2] was > 100 µM and the TGI [3] was > 100 µM. For the same molecule, the TGI [4] was > 100 µM, the TGI [5] was > 100 µM and the TGI [6] was > 100 µM. For the same molecule, the TGI [7] was > 100 µM, the TGI [8] was > 100 µM and the TGI [9] was > 100 µM. The TGI [12] was > 100 µM and the TGI [11] was > 100 µM.

`COC1(OC)CCc2c(sc3ncnc(Nc4cccc(Br)c4)c23)C1` was tested, and the TGI [1] was 65.6 µM, the TGI [2] was > 100 µM and the TGI [3] was > 100 µM. The TGI [4] was > 100 µM, the TGI [5] was > 100 µM and the TGI [6] was > 100 µM. For the same molecule, the TGI [7] was > 100 µM, the TGI [8] was > 100 µM and the TGI [9] was 30.3 µM. The TGI [12] was > 100 µM and the TGI [11] was > 100 µM.
